Laboratory results taken from US11802120B2, “Fused cyclic urea derivatives as CRHR2 antagonist” (RaQualia Pharma Inc., priority 2018, dated 2023).

biological target: T1, human CRHR2-alpha (Homo sapiens, UniProt Q13324); assay: cAMP functional assay for human CRHR2 (LANCE Ultra cAMP, TR-FRET); assay type: cell-based; conditions: CHO-K1 cells expressing human CRHR2-alpha, agonist human urocortin2 at EC80, cAMP; read-out: IC50 against CRHR2
T1 sequence (Q13324 1-411): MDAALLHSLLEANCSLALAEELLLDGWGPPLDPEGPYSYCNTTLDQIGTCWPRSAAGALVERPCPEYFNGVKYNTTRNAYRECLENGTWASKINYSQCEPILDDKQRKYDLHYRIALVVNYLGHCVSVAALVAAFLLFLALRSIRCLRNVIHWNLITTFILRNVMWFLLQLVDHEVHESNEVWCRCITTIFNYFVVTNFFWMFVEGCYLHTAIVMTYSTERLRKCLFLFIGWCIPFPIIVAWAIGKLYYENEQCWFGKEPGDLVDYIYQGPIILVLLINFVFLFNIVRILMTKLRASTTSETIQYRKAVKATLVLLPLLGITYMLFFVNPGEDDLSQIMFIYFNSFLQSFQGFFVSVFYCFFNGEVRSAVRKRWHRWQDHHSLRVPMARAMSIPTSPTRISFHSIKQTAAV
Experimental: cAMP functional assay for human CRHR1 and CRHR2
The ability of the compounds of this invention to inhibit either CRHR2 or CRHR1 is assessed by 3′,5′-cyclic adenosine monophosphate (cAMP) production in cells using the LANCE Ultra cAMP assay kit (ParkinElmer), which are designed based on the homogeneous time-resolved fluorescence resonance energy transfer (TR-FRET) immunoassay.
CHO-K1 (Chinese hamster ovary) cells stably expressing either human CRHR2-alpha (DiscoveRX, Cat. 95-0048C2) or human CRHR1-beta (DiscoveRX, Cat. 95-0047C2) are grown in HAM's F12 media supplemented with 10% fetal bovine serum (FBS), 100 units/mL penicillin, 100 microg/mL hygromycin and 0.5 microg/mL geneticin at 37° C. in 5% CO2 humidified incubator to 80% confluence. After 7 hours starvation treatment in culture media containing 0.1% FBS, the cells are washed with Hanks balanced salt solution (HBSS) and cryopreserved.
For cAMP assay, frozen cells are thawed and washed with HBSS, followed by resuspended in assay buffer (HBSS containing 0.1% bovine serum albumin, 0.5 mM isobutylmethylxanthine and 5 mM Hepes, pH 7.4) at the appropriate concentration for the assay. The cell suspensions are plated on 384-well microplates (Greiner Bio-One) at a density of 4,000 cells per well. After preincubating the cells with various concentrations of the compounds for 30 min at 25° C., an assay buffer containing EC80 concentration of each agonist is added and the cells are incubated for 30 min at 25° C. Human urocortin2 (Peptide Institute) and CRF (Peptide Institute) are used as agonists for CRHR2 and CRHR1, respectively. For the termination of assay, europium-labeled cAMP tracer and ULight (registered trademark) dye labeled cAMP antibodies, both prepared with Lance-Ultra cAMP detection reagent (Perkin Elmer) are added in the plate and incubate for 60 min at 25° C. After incubation, TR-FRET signal is detected by EnVision plate reader (PerkinElmer). The IC50 values for compounds are calculated from dose-response curves by fitting the percent inhibition using XLfit (ID Business Solutions).

IC50, < 300 nM:
O=C(N[C@H]1CC[C@H](Cn2c(=O)n(-c3ccc(N4CC5(COC5)CC4=O)nc3)c3ccccc32)CC1)c1cc(Cl)cnc1C(F)F [Example 584, 5-chloro-2-(difluoromethyl)-N-((1r,4r)-4-((2-oxo-3-(6-(7-oxo-2-oxa-6-azaspiro[3,4]octan-6-yl)pyridin-3-yl)-2,3-dihydro-1H-benzo[d]imidazol-1-yl)methyl)cyclohexyl) nicotinamide]
Cc1ncc(Cl)cc1C(=O)N[C@H]1CC[C@H](Cn2c(=O)n(-c3ccc(Br)nc3)c3ccccc32)CC1 [Example 66, N((1r,4r)-4-((3-(6-bromopyridin-3-yl)-2-oxo-2,3-dihydro-1H-benzo[d]imidazol-1-yl)methyl)cyclohexyl)-5-chloro-2-methylnicotinamide]
O=C(N[C@H]1CC[C@H](Cn2c(=O)n(-c3ccc(N[C@@H]4CCOC4)nc3)c3ccccc32)CC1)c1cc(Cl)cnc1C(F)(F)F [Example 300, 5-chloro-N-((1R,4r)-4-((2-oxo-3-(6-(((R)-tetrahydro-furan-3-yl)amino)pyridin-3-yl)-2,3-dihydro-1H-benzo [d]imidazol-1-yl)methyl)cyclohexyl)-2-(trifluoro-methyl)nicotinamide]
CC(C)Nc1ccc(-n2c(=O)n(C[C@H]3CC[C@H](NC(=O)c4cc(Cl)cnc4C(F)F)CC3)c3ccccc32)cn1 [Example 514, 5-chloro-2-(difluoromethyl)-N-((1r,4r)-4-((3-(6-(iso-propylamino)pyridin-3-yl)-2-oxo-2,3-dihydro-1H-benzo [d]imidazol-1-yl)methyl)cyclohexyl)nicotinamide]
CNC(=O)c1ccc(-n2c(=O)n(C[C@H]3CC[C@H](NC(=O)c4cc(Cl)cnc4C(F)F)CC3)c3cccc(F)c32)cn1 [Example 628, 5-(3-(((1 r,4r)-4-(5-chloro-2-(difluoromethyl)nicotinamido)cyclohexyl)methyl)-7-fluoro-2-oxo-2,3-dihydro-1H-benzo [d]imidazol-1-yl)-N-methylpicolinamide]
CNc1ncc(-n2c(=O)n(C[C@H]3CC[C@H](NC(=O)c4cc(Cl)cnc4C(F)F)CC3)c3ccccc32)cc1F [Example 639, 5-chloro-2-(difluoromethyl)-N-((1r,4r)-4-((3-(5-fluoro-6-(methylamino)pyridin-3-yl)-2-oxo-2,3-dihydro-1H-benzo[d]imidazol-1-yl)methyl)cyclohexyl)nicotinamide]
O=C(NC1CC1)c1ccc(-n2c(=O)n(C[C@H]3CC[C@H](NC(=O)c4cc(Cl)cnc4C(F)F)CC3)c3ccccc32)cn1 [Example 585, 5-(3-(((1r,4r)-4-(5-chloro-2-(difluoromethyl)nicotinamido)cyclohexyl)methyl)-2-oxo-2,3-dihydro-1H-benzo[d]imidazol-1-yl)-N-cyclopropyl-picolinamide]
Cc1ncc(Cl)cc1C(=O)N[C@H]1CC[C@H](Cn2c(=O)n(-c3ccc(C4CC4)nc3)c3ccccc32)CC1 [Example 86, 5-chloro-N-((1r,4r)-4-((3-(6-cyclopropylpyridin-3-yl)-2-oxo-2,3-dihydro-1H-benzo[d]imidazol-1-yl)methyl)cyclohexyl)-2-methylnicotinamide]
Cc1ncc(Cl)cc1C(=O)N[C@H]1CC[C@H](Cn2c(=O)n(-c3ccc4ncnn4c3)c3ccccc32)CC1 [Example 278, N-((1r,4r)-4-((3-([1,2,4]triazolo [1,5-a]pyridin-6-yl)-2-oxo-2,3-dihydro-1H-benzo[d]imidazol-1-yl)methyl)cyclohexyl)-5-chloro-2-methylnicotinamide]
Cc1ncc(Cl)cc1C(=O)N[C@H]1CC[C@H](Cn2c(=O)n(-c3ccc4nccnc4c3)c3ccccc32)CC1 [Example 165, 5-chloro-2-methyl-N-((1r,4r)-4-((2-oxo-3-(quinoxalin-6-yl)-2,3-dihydro-1H-benzo[d]imidazol-1-yl)methyl)cyclo-hexyl)nicotinamide]
Cc1ncc(Cl)cc1C(=O)N[C@H]1CC[C@H](Cn2c(=O)n(-c3cnc4c(c3)oc(=O)n4C)c3ccccc32)CC1 [Example 215, 5-chloro-2-methyl-N-((1r,4r)-4-((3-(3-methyl-2-oxo-2,3-dihydrooxazolo[4,5-b]pyridin-6-yl)-2-oxo-2,3-dihydro-1H-benzo[d]imidazol-1-yl)methyl)cyclohexyl)nicotinamide]
O=C(N[C@H]1CC[C@H](Cn2c(=O)n(-c3cnc4[nH]ccc4c3)c3ccccc32)CC1)c1cc(Cl)cnc1C(F)F [Example 455, 5-chloro-2-(difluoromethyl)-N-((1r,4r)-4-((2-oxo-3-(1H-pyrrolo[2,3-b]pyridin-5-yl)-2,3-dihydro-1H-benzo[d]imidazol-1-yl)methyl)cyclo-hexyl)nicotinamide]
CNC(=O)c1ccc(-n2c(=O)n(C[C@H]3CC[C@H](NC(=O)c4cc(Cl)cnc4C)CC3)c3cc(F)ccc32)cn1 [Example 226, 5-(3-(((1r,4r)-4-(5-chloro-2-methylnicotinamido)cyclo-hexyl)methyl)-5-fluoro-2-oxo-2,3-dihydro-1H-benzo[d]imidazol-1-yl)-N-methylpicolinamide]
Cc1ncc(Cl)cc1C(=O)N[C@H]1CC[C@H](Cn2c(=O)n(-c3ccc(C(=O)Nc4ccn(C)n4)nc3)c3ccccc32)CC1 [Example 173, 5-(3-(((1r,4r)-4-(5-chloro-2-methylnicotinamido)cyclohexyl)methyl)-2-oxo-2,3-dihydro-1H-benzo[d]imidazol-1-yl)-N-(1-methyl-1H-pyrazol-3-yl)picolinamide]
Cc1ncc(Cl)cc1C(=O)N[C@H]1CC[C@H](Cn2c(=O)n(-c3ccc(-c4cnco4)cc3)c3ccccc32)CC1 [Example 450, 5-chloro-2-methyl-N-((1r,4r)-4-((3-(4-(oxazol-5-yl)phenyl)-2-oxo-2,3-dihydro-1H-benzo [d]imidazol-1-yl)methyl)cyclo-hexyl)nicotinamide]
Cc1ncc(Cl)cc1C(=O)N[C@H]1CC[C@H](Cn2c(=O)n(-c3ccc(N(C)C)nc3)c3ccccc32)CC1 [Example 52, 5-chloro-N-((1r,4r)-4-((3-(6-(dimethylamino)pyridin-3-yl)-2-oxo-2,3-dihydro-1H-benzo[d]imidazol-1-yl)methyl)cyclohexyl)-2-methylnicotinamide]
Cc1ncc(Cl)cc1C(=O)N[C@H]1CC[C@H](Cn2c(=O)n(-c3cccnc3C#N)c3ccccc32)CC1 [Example 239, 5-chloro-N-((1r,4r)-4-((3-(2-cyanopyridin-3-yl)-2-oxo-2,3-dihydro-1H-benzo[d]imidazol-1-yl)methyl)cyclohexyl)-2-methylnicotinamide]
Cn1ncc2cc(-n3c(=O)n(C[C@H]4CC[C@H](NC(=O)c5cc(Cl)cnc5C(F)F)CC4)c4cccnc43)ccc21 [Example 547, 5-chloro-2-(difluoromethyl)-N-((1r,4r)-4-((3-(1-methyl-1H-indazol-5-yl)-2-oxo-2,3-dihydro-1H-imidazo[4,5-b]pyridin-1-yl)methyl)cyclo-hexyl)nicotinamide]
COc1cccc(-n2c(=O)n(C[C@H]3CC[C@H](NC(=O)c4cc(Cl)cnc4C)CC3)c3ccccc32)c1C#N [Example 246, 5-chloro-N-((1r,4r)-4-((3-(2-cyano-3-methoxyphenyl)-2-oxo-2,3-dihydro-1H-benzo [d]imidazol-1-yl)methyl)cyclohexyl)-2-methyl-nicotinamide]
Cn1ccc(-c2ccc(-n3c(=O)n(C[C@H]4CC[C@H](NC(=O)c5cc(Cl)cnc5C(F)F)CC4)c4ccccc43)cn2)n1 [Example 737, 5-chloro-2-(difluoromethyl)-N-((1r,4r)-4-((3-(6-(1-methyl-1H-pyrazol-3-yl)pyridin-3-yl)-2-oxo-2,3-dihydro-1H-benzo[d]imidazol-1-yl)methyl)cyclohexyl)nicotinamide]
